Results taken from US20130143905A1, “NOVEL ANTAGONISTS FOR CCR2 AND USES THEREOF” (BOEHRINGER INGELHEIM INTERNATIONAL GMBH, priority 2009, published 2013).

Target: T1, CCR2 (Homo sapiens, UniProt P41597)
T1 construct: Membranes were prepared from THP-1 cells; endogenous in cells; host or cells: THP-1 (human acute monocytic leukaemia cells), membrane preparation
T1 sequence (P41597 1-360 isoform P41597-2): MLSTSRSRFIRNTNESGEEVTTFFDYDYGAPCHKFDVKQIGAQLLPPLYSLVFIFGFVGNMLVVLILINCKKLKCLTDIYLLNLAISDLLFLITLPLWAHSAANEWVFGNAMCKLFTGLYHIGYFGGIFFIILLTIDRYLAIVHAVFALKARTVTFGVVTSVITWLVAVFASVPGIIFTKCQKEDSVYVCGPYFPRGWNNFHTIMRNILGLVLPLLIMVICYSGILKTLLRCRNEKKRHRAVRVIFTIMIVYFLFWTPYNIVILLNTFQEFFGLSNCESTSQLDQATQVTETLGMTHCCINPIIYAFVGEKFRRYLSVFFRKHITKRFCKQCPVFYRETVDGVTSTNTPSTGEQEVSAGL
Experiment: CCR2 receptor membrane binding assay ([125I]MCP-1, THP-1 membranes, SPA beads)
Details: THP-1 cell membranes, [125I]MCP-1 displacement, dissociation constant hKi
Method: The above exemplary substances have been tested for binding to CCR2 using a binding assay as outlined herein below:
THP-1 cells (human acute monocytic leukaemia cells) were cultured under standardized conditions at 37° C. and 5% CO2 in a humidified incubator. THP-1 cells were cultivated in RPMI 1640 medium (Gibco 21875) containing 1% MEM-NEAA (Gibso 11140) 2 mM L-glutamine, 1.5 g/L sodium bicarbonate, 4.5 g/L glucose, 10 mM HEPES and 1.0 mM sodium pyruvate, 90%; 10% fetal calf serum (FCS Gibco 10500-064).
Membranes were prepared from THP-1 cells. THP-1 cells were centrifuged at 300×g at 4° C. for 10 min. The cell pellet was resuspendet in Phosphate Buffer Saline (PBS, including 10 μM Pefabloc and a protease inhibitor mix ‘complete’, Boehringer Mannheim (1 tablet/50 ml)), to a concentration of […]. The membrane preparation was performed by disrupting the cells by nitrogen […] (at 50 bar, for 1 h) in a “Nitrogen Bombe” (Parr Instrument). Cell debris was removed by centrifugation (800×g at 4° C., 1 min). The supernatant was centrifuged at 80000×g, 4° C. for 30 min to sediment the cell membranes. Usually 50 mg of protein (Bradford assay) were yielded from 1×10E9 cells. The membranes were resuspendet in 25 mM HEPES, 25 mM MgCl2, 1 mM CaCl2, 10% Glycerine for storage in aliquots at −80° C. in 25 mM HEPES, 25 mM MgCl2, 1 mM CaCl2, 10% Glycerine and stored at −80° C.
Perkin Elmer NEX 332 Jod 125 MCP-1, Stock: 2200 Ci/mmol solved in 2000 μl assay buffer, stored at −20° C. THP-1 membrane were adjusted with 25 mM HEPES, pH 7.2; 5 mM MgCl2; 0.5 mM CaCl2; 0.2% BSA assay buffer to a concentration of 2.5 μg/15 μl. Amersham Biosciences PVT-WGA Beads (RPNQ0001) were adjusted with assay buffer to a concentration of 0.24 mg/30 μl. For preparation of the membrane-bead-suspension membranes and beads were incubated for 30 min at RT under rotation (60 rpm) with a ratio of 1:2. Test compounds dissolved in 100% DMSO to a concentration of 10 mM and are further diluted with 100% DMSO to 1 mM. All additional compound dilutions were obtained with assay buffer, final 1% DMSO. Compounds, membrane-bead-suspension and [125I]MCP-1 (ca. 25000 cpm/10 μl) were incubated. Bound radioactivity was determined by scintillation counter after 8 h. Determination of affinity of test compounds (dissociation constant hKi) is calculated by iterative fitting of experimental data using the “easy sys” program, which is based on law of mass action (Schittkowski K. (1994), Numerische Mathematik, Vol. 68, 129-142).

Row | Compound | Ki [nM]
1 | CN(C1CCN(C2CCN(C(=O)c3ncnc(NC[C@H]4CCC[C@@H](c5ccccc5)C4)c3C3CC3)CC2)CC1)S(C)(=O)=O [Example 1] | 9
2 | CN(C1CCN(C2CCN(C(=O)c3ncnc(NCc4ccc(C(C)(C)C)cc4)c3C3CC3)CC2)CC1)S(C)(=O)=O [Example 2] | 82
3 | COc1c(NC[C@H]2CCC[C@@H](c3ccccc3)C2)ncnc1C(=O)N1CCC(N2CCC(N(C)S(C)(=O)=O)CC2)CC1 [Example 3] | 5
4 | COc1c(NCC2CCCC(c3ccccc3)C2)ncnc1C(=O)N1CCC(N2CCC(N(C)S(C)(=O)=O)CC2)CC1 (centres unmarked) [Example 4] | 15
5 | COc1c(NC[C@H]2CCC[C@@H](c3ccc(C)cc3)O2)ncnc1C(=O)N1CCC(N2CCC(N(C)S(C)(=O)=O)CC2)CC1 [Example 5] | 84
6 | COc1c(NC[C@H]2CCC[C@@H](c3ccc(C)cc3)O2)ncnc1C(=O)N1CCC(N[C@@H]2CCOC[C@@H]2OC)CC1 [Example 6] | 18
7 | COc1c(NC[C@H]2CCC[C@@H](c3ccc(C)cc3)O2)ncnc1C(=O)N1CCC(N[C@H]2CCOC[C@H]2OC)CC1 [Example 7] | 13
8 | COc1c(NC[C@H]2CCC[C@@H](c3cccc(C)c3)O2)ncnc1C(=O)N1CCC(N2CCC(N(C)S(C)(=O)=O)CC2)CC1 [Example 8] | 73
9 | COc1c(NC[C@H]2CCC[C@@H](c3cccc(C)c3)O2)ncnc1C(=O)N1CCC(N[C@@H]2CCOC[C@@H]2OC)CC1 [Example 9] | 25
10 | COc1c(NC[C@H]2CCC[C@@H](c3cccc(C)c3)O2)ncnc1C(=O)N1CCC(N[C@H]2CCOC[C@H]2OC)CC1 [Example 10] | 19
11 | COc1c(NC[C@H]2CCC[C@@H](c3ccccc3)C2)ncnc1C(=O)N1CCC(N[C@@H]2CCOC[C@@H]2OC)CC1 [Example 11] | 12
12 | COc1c(NC[C@H]2CCC[C@@H](c3ccccc3)C2)ncnc1C(=O)N1CCC(N[C@H]2CCOC[C@H]2OC)CC1 [Example 12] | 5
13 | COc1c(NC[C@H]2CCC[C@@H](c3ccccc3)C2)ncnc1C(=O)N1CCC(NC2CCOCC2OC)CC1 (some centres unmarked) [Example 13] | 5
14 | COc1c(NC[C@H]2CCC[C@@H](c3ccccc3)C2)ncnc1C(=O)N1CCC(N(C)C2CCOCC2OC)CC1 (some centres unmarked) [Example 14] | 16
15 | COc1c(NC[C@H]2CCC[C@@H](c3ccc(C)cc3)O2)ccnc1C(=O)N1CCC(N[C@H]2CCOC[C@H]2OC)CC1 [Example 15] | 13
16 | COc1c(NC[C@H]2CCC[C@@H](c3ccc(C)cc3)O2)ccnc1C(=O)N1CCC(N[C@@H]2CCOC[C@@H]2OC)CC1 [Example 16] | 22

Next, values leading:

Row | Ki [nM] | Compound
17 | 121 | COc1c(NCc2ccc(C(C)(C)C)cc2)ncnc1C(=O)N1CCC(N2CCC(N(C)S(C)(=O)=O)CC2)CC1 [Example 10a]
18 | 162 | COc1c(NC[C@@H]2CCC[C@H](c3ccc(Cl)cc3)O2)ncnc1C(=O)N1CCC(N[C@@H]2CCOC[C@@H]2OC)CC1 [Example 10b]
19 | 377 | COc1c(NC[C@@H]2CCC[C@H](c3ccc(Cl)cc3)O2)ncnc1C(=O)N1CCC(N2CCC(N(C)S(C)(=O)=O)CC2)CC1 [Example 10c]
20 | 120 | COc1c(NC[C@@H]2CCC[C@H](c3ccc(Cl)cc3)O2)ncnc1C(=O)N1CCC(N[C@H]2CCOC[C@H]2OC)CC1 [Example 10d]
21 | 10 | COc1c(NC[C@H]2CCC[C@@H](c3ccc(Cl)cc3)O2)ncnc1C(=O)N1CCC(N[C@@H]2CCOC[C@@H]2OC)CC1 [Example 10e]
22 | 60 | COc1c(NC[C@H]2CCC[C@@H](c3ccc(Cl)cc3)O2)ncnc1C(=O)N1CCC(N2CCC(N(C)S(C)(=O)=O)CC2)CC1 [Example 10f]
23 | 7 | COc1c(NC[C@H]2CCC[C@@H](c3ccc(Cl)cc3)O2)ncnc1C(=O)N1CCC(N[C@H]2CCOC[C@H]2OC)CC1 [Example 10g]
24 | 1 | COc1c(NC[C@H]2CCC[C@@H](c3ccc(C(F)(F)F)cc3)O2)ncnc1C(=O)N1CCC(N[C@H]2CCOC[C@H]2OC)CC1 [Example 10h]
25 | 3 | COc1c(NC[C@H]2CCC[C@@H](c3ccc(C(F)(F)F)cc3)O2)ncnc1C(=O)N1CCC(N[C@@H]2CCOC[C@@H]2OC)CC1 [Example 10i]
26 | 1 | COc1c(NC[C@H]2CCC[C@@H](c3ccc(OC(F)(F)F)cc3)O2)ncnc1C(=O)N1CCC(N[C@H]2CCOC[C@H]2OC)CC1 [Example 10j]
27 | 2 | COc1c(NC[C@H]2CCC[C@@H](c3ccc(OC(F)(F)F)cc3)O2)ncnc1C(=O)N1CCC(N[C@@H]2CCOC[C@@H]2OC)CC1 [Example 10k]
28 | 4 | COc1c(NC[C@H]2CCC[C@@H](c3ccc(C(F)(F)F)cc3)O2)ncnc1C(=O)N1CCC(NC2CCOCC2F)CC1 (some centres unmarked) [Example 10l]
29 | 1 | COc1c(NC[C@H]2CCC[C@@H](c3ccc(OC(F)(F)F)cc3)O2)ncnc1C(=O)N1CCC(NC2CCOCC2F)CC1 (some centres unmarked) [Example 10m]
